Assay results taken from PubChem BioAssay (NCI).
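Method: 48-hour compound exposure of cells in 96-well plates, five concentrations, linear interpolation of endpoints. At the TGI there is no net growth.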

Columns and labels:
Assay in all cases: inhibition of tumour cell growth, NCI panel, 48 h
SK-OV-3 ovarian = system: SK-OV-3 ovarian
SK-MEL-5 melanoma = system: SK-MEL-5 melanoma
MDA-MB-435 = system: MDA-MB-435
EKVX NSCLC = system: EKVX NSCLC
HL-60(TB) leukemia = system: HL-60(TB) leukemia
K-562 leukemia = system: K-562 leukemia
HT29 colon = system: HT29 colon
NCI-H226 lung = system: NCI-H226 lung
MDA-MB-231 breast = system: MDA-MB-231 breast
SF-295 CNS = system: SF-295 CNS
A549 NSCLC = system: A549 NSCLC
HCT-15 colon = system: HCT-15 colon
SF-268 CNS = system: SF-268 CNS
SK-MEL-28 melanoma = system: SK-MEL-28 melanoma
MDA-N = system: MDA-N
PC-3 prostate = system: PC-3 prostate
MOLT-4 leukemia = system: MOLT-4 leukemia
SR leukemia = system: SR leukemia
SNB-19 CNS = system: SNB-19 CNS
HCT-116 colon = system: HCT-116 colon
NCI/ADR-RES ovarian = system: NCI/ADR-RES ovarian
RXF 393 renal = system: RXF 393 renal
M14 melanoma = system: M14 melanoma
OVCAR-5 ovarian = system: OVCAR-5 ovarian
DU-145 prostate = system: DU-145 prostate
NCI-H460 lung = system: NCI-H460 lung
HCC-2998 colon = system: HCC-2998 colon
T-47D breast = system: T-47D breast
KM12 colon = system: KM12 colon
OVCAR-4 ovarian = system: OVCAR-4 ovarian
UACC-257 melanoma = system: UACC-257 melanoma
MALME-3M melanoma = system: MALME-3M melanoma
OVCAR-3 ovarian = system: OVCAR-3 ovarian
TK-10 renal = system: TK-10 renal
NCI-H23 lung = system: NCI-H23 lung
SN12C renal = system: SN12C renal
U251 CNS = system: U251 CNS
HOP-62 NSCLC = system: HOP-62 NSCLC
SK-MEL-2 melanoma = system: SK-MEL-2 melanoma
MCF7 breast = system: MCF7 breast
UACC-62 melanoma = system: UACC-62 melanoma
HS 578T breast = system: HS 578T breast
HOP-92 NSCLC = system: HOP-92 NSCLC
RPMI-8226 leukemia = system: RPMI-8226 leukemia
786-0 renal = system: 786-0 renal
ACHN renal = system: ACHN renal
COLO 205 colon = system: COLO 205 colon
SF-539 CNS = system: SF-539 CNS
CCRF-CEM leukemia = system: CCRF-CEM leukemia
CAKI-1 renal = system: CAKI-1 renal
A498 renal = system: A498 renal
UO-31 renal = system: UO-31 renal
LOX IMVI melanoma = system: LOX IMVI melanoma
SW-620 colon = system: SW-620 colon
IGROV1 ovarian = system: IGROV1 ovarian
OVCAR-8 ovarian = system: OVCAR-8 ovarian
NCI-H522 lung = system: NCI-H522 lung
SNB-75 CNS = system: SNB-75 CNS

Which results are given for `O=C1Nc2ccc(Br)cc2/C1=N/N1C(=O)C(=O)N(C2CCCCC2)C1=S`?
TGI (SK-OV-3 ovarian): 21.9 µM; TGI (SK-MEL-5 melanoma): 16.7 µM; TGI (MDA-MB-435): 8.16 µM; TGI (EKVX NSCLC): 23.1 µM; TGI (HL-60(TB) leukemia): 7.23 µM; TGI (K-562 leukemia): 12.6 µM; TGI (HT29 colon): 7.91 µM; TGI (NCI-H226 lung): 23.5 µM; TGI (MDA-MB-231 breast): 25.5 µM; TGI (SF-295 CNS): 15.4 µM; TGI (A549 NSCLC): 19.2 µM; TGI (HCT-15 colon): 10.4 µM; TGI (SF-268 CNS): 30.3 µM; TGI (SK-MEL-28 melanoma): 19 µM; TGI (MDA-N): 7.56 µM; TGI (PC-3 prostate): 25.9 µM; TGI (MOLT-4 leukemia): 16.5 µM; TGI (SR leukemia): 10.6 µM; TGI (SNB-19 CNS): 69.1 µM; TGI (HCT-116 colon): 10.8 µM; TGI (NCI/ADR-RES ovarian): 13.5 µM; TGI (RXF 393 renal): 21.8 µM; TGI (M14 melanoma): 14.6 µM; TGI (OVCAR-5 ovarian): 28.9 µM; TGI (DU-145 prostate): 23.1 µM; TGI (NCI-H460 lung): 15.7 µM; TGI (HCC-2998 colon): 13.5 µM; TGI (T-47D breast): 9.95 µM; TGI (KM12 colon): 14.6 µM; TGI (OVCAR-4 ovarian): 22.6 µM; TGI (UACC-257 melanoma): 34.7 µM; TGI (MALME-3M melanoma): 22.3 µM; TGI (OVCAR-3 ovarian): 10.5 µM; TGI (TK-10 renal): 35 µM; TGI (NCI-H23 lung): 20.3 µM; TGI (SN12C renal): 16 µM; TGI (U251 CNS): 15.9 µM; TGI (HOP-62 NSCLC): 14.3 µM; TGI (SK-MEL-2 melanoma): 4.34 µM; TGI (MCF7 breast): 15.6 µM; TGI (UACC-62 melanoma): 12.2 µM; TGI (HS 578T breast): 23.2 µM; TGI (HOP-92 NSCLC): 53.7 µM; TGI (RPMI-8226 leukemia): 19.9 µM; TGI (786-0 renal): 18.4 µM; TGI (ACHN renal): 16.7 µM; TGI (COLO 205 colon): 10.4 µM; TGI (SF-539 CNS): 18.3 µM; TGI (CCRF-CEM leukemia): 16.6 µM; TGI (CAKI-1 renal): 12.3 µM; TGI (A498 renal): 13.9 µM; TGI (UO-31 renal): 4.79 µM; TGI (LOX IMVI melanoma): 15.7 µM; TGI (SW-620 colon): 14.8 µM

`CC(NNC(=O)c1ccncc1)c1cccc(C(F)(F)F)c1` (stereo not given) was tested. Which TGI (SK-OV-3 ovarian) did it give?
The TGI was greater than 100 µM.

What about the TGI (SK-MEL-5 melanoma) of the same molecule?
Its TGI is greater than 100 µM.

And the TGI (MDA-MB-435)?
The TGI was greater than 100 µM.

And the TGI (EKVX NSCLC)?
The TGI was greater than 100 µM.

And the TGI (HL-60(TB) leukemia)?
The TGI was greater than 100 µM.

What about the TGI (K-562 leukemia) of the same molecule?
Its TGI is greater than 100 µM.

And the TGI (HT29 colon)?
Its TGI is greater than 100 µM.

What about the TGI (NCI-H226 lung) of the same molecule?
The TGI was greater than 100 µM.

What about the TGI (MDA-MB-231 breast) of the same molecule?
Its TGI is greater than 100 µM.

And the TGI (SF-295 CNS)?
Its TGI is greater than 100 µM.

And the TGI (A549 NSCLC)?
Its TGI is greater than 100 µM.

What about the TGI (HCT-15 colon) of the same molecule?
Its TGI is greater than 100 µM.

And the TGI (IGROV1 ovarian)?
Its TGI is greater than 100 µM.

And the TGI (SF-268 CNS)?
The TGI was greater than 100 µM.

What about the TGI (SK-MEL-28 melanoma) of the same molecule?
Its TGI is greater than 100 µM.

And the TGI (MDA-N)?
The TGI was greater than 100 µM.

What about the TGI (PC-3 prostate) of the same molecule?
Its TGI is greater than 100 µM.

And the TGI (MOLT-4 leukemia)?
The TGI was greater than 100 µM.

What about the TGI (SR leukemia) of the same molecule?
Its TGI is greater than 100 µM.

And the TGI (HCT-116 colon)?
Its TGI is greater than 100 µM.

What about the TGI (NCI/ADR-RES ovarian) of the same molecule?
Its TGI is greater than 100 µM.

And the TGI (RXF 393 renal)?
Its TGI is greater than 100 µM.

What about the TGI (M14 melanoma) of the same molecule?
The TGI was greater than 100 µM.

What about the TGI (OVCAR-8 ovarian) of the same molecule?
The TGI was greater than 100 µM.

What about the TGI (OVCAR-5 ovarian) of the same molecule?
The TGI was greater than 100 µM.

What about the TGI (DU-145 prostate) of the same molecule?
The TGI was greater than 100 µM.

And the TGI (NCI-H460 lung)?
The TGI was greater than 100 µM.

And the TGI (HCC-2998 colon)?
Its TGI is greater than 100 µM.

What about the TGI (T-47D breast) of the same molecule?
Its TGI is greater than 100 µM.

And the TGI (KM12 colon)?
The TGI was greater than 100 µM.

And the TGI (OVCAR-4 ovarian)?
Its TGI is greater than 100 µM.

What about the TGI (UACC-257 melanoma) of the same molecule?
Its TGI is greater than 100 µM.

What about the TGI (MALME-3M melanoma) of the same molecule?
Its TGI is greater than 100 µM.

And the TGI (TK-10 renal)?
Its TGI is greater than 100 µM.

And the TGI (NCI-H23 lung)?
Its TGI is greater than 100 µM.

What about the TGI (SN12C renal) of the same molecule?
Its TGI is greater than 100 µM.

What about the TGI (U251 CNS) of the same molecule?
The TGI was greater than 100 µM.

And the TGI (HOP-62 NSCLC)?
Its TGI is greater than 100 µM.

What about the TGI (SK-MEL-2 melanoma) of the same molecule?
Its TGI is greater than 100 µM.

And the TGI (MCF7 breast)?
Its TGI is greater than 100 µM.

And the TGI (UACC-62 melanoma)?
The TGI was greater than 100 µM.

And the TGI (HS 578T breast)?
Its TGI is greater than 100 µM.

And the TGI (HOP-92 NSCLC)?
The TGI was greater than 100 µM.

And the TGI (RPMI-8226 leukemia)?
Its TGI is greater than 100 µM.

What about the TGI (786-0 renal) of the same molecule?
Its TGI is greater than 100 µM.

And the TGI (ACHN renal)?
Its TGI is greater than 100 µM.

And the TGI (COLO 205 colon)?
Its TGI is greater than 100 µM.

What about the TGI (SF-539 CNS) of the same molecule?
The TGI was greater than 100 µM.

And the TGI (CCRF-CEM leukemia)?
The TGI was greater than 100 µM.

What about the TGI (CAKI-1 renal) of the same molecule?
Its TGI is greater than 100 µM.

What about the TGI (NCI-H522 lung) of the same molecule?
The TGI was greater than 100 µM.

And the TGI (SNB-75 CNS)?
Its TGI is greater than 100 µM.

And the TGI (A498 renal)?
Its TGI is greater than 100 µM.

And the TGI (UO-31 renal)?
Its TGI is greater than 100 µM.

What about the TGI (LOX IMVI melanoma) of the same molecule?
Its TGI is greater than 100 µM.

And the TGI (SW-620 colon)?
The TGI was greater than 100 µM.
